The text below walks through data of article PMC7385626 (Scientific Reports, 2020).

The IC50 is the concentration at which inhibition is half-maximal.

One series deals with HT29 cells. The following applies: human. From the text: (§1) LDH activities were measurement at 492-630 nm using a microplate reader. The percentage cytotoxicity was find with using the equation, […], where experimental value is the test-molecule treated cells, and high control is Triton X-100 treated cells, and low standard or control (spontaneous LDH enzyme) is the untreated cells.

Another series has as its system HT29. The series is described as follows: BrdU Cell Proliferation Assay (BCPA). In kind it is cell-based, human. Particulars: BrdU ELISA, 24 h, mean ± SD of three experiments. From the text: (§2) The antiproliferative activities of Ag(I) molecules and the starting molecules of the parent molecules, N-bishydeten and [Ag(CN)2]^− compound, on cells, were monitored utilizing by the BrdU Cell Proliferation Assay (BCPA) (Fig. 6).
(§3) The antiproliferative activity of the 2, 3, 4, [Ag(CN)2]^− and 5FU against various cell lines (HeLa ATCC CCL-2, C6 cells ATCC CCL-107, HT29 ATCC HTB-38, and Vero ATCC CCL-81) were preserved and maintained in Dulbecco’s modified eagle’s medium, supplemented with %2 antibiotic (Streptomycin-Penicillin) solution and 10% fetal bovine serum.
(§4) The cell suspension including 5×10^3 cells in 100 µL was supplied into the well cell plates (96-well cell). The therapies of these cells with 2, 3, 4 and [Ag(CN)2]^− in DMSO (max 0.1% DMSO) and 5-Florouracil (5 FU) molecule in DMSO (max 0.1% DMSO) separately at concentration 0.25, 0.50, 1.00, 1.50, 2.00, 2.50, 3.75, and 5.00 µg/mL were carried out. The last volume was adapted to 200 µL by mixture and DMEM and also incubated for 24 h at 37°C with 5% CO2. The antiproliferative activities of the 2, 3, 4 and [Ag(CN)2]^− were determined with using BrdU Cell proliferation ELISA Kit conforming to manufacturer’s assay.
(§5) IC50 values the concentration of a factor which required for other method of in vitro.
On the technique in general: Incorporation of labelled thymidine or its analogues reports DNA synthesis.

A further series can be described thus: in vitro. Particulars: human (HT-29, HeLa), rat (C6), African green monkey (Vero).
From the text: as §1

The subject of another series is HeLa. Description: BrdU Cell Proliferation Assay (BCPA). The class given is cell-based. The following applies: BrdU ELISA, 24 h, mean ± SD of three experiments.
From the text: as §2, §3, §4, §5

For another series, the system named is Vero. Description: BrdU Cell Proliferation Assay (BCPA). In kind it is cell-based. The following applies: BrdU ELISA, 24 h, normal cell line, mean ± SD of three experiments.
From the text: as §2, §3, §4, §5

In the next series the test system is C6. Description: BrdU Cell Proliferation Assay (BCPA). In kind it is cell-based. Particulars: BrdU ELISA, 24 h, mean ± SD of three experiments.
From the text: as §2, §3, §4, §5

The subject of a further series is CT-DNA. The following applies: literature comparison; ref [59],[60]; cited from earlier work.
Series [1] deals with HeLa, HT29, C6 and Vero cells. Description: BrdU Cell Proliferation Assay, range over the cell lines. The class given is cell-based. Particulars: BrdU assay.
From the text: as §2, §3, §4, §5

Series [2] relates to S. gallinarum. The series is described as follows: Serial microdilution assay (MIC). In kind it is cell-based, Salmonella Gallinarum. The method, then: (§6) […]. […] Four types of gram-positive bacterial strains (St. pyogenez, B. subtilis, B. cereus, S. aureus) and five types of the gram-negative (S. enteridis, E. aerogenes, P. aeruginosa, E. coli, and S. gallinarum) were sensitive to 4 and 1. […]. The minimal inhibitory concentration value was studied for the microorganism cells, which evaluated to sensitive the substances and they tested in the disc-diffusion method. Inoculate of microorganism was prepared utilizing 12 h suspensions and broth cultures were adjusted to 0.5 McFarland turbidity standard. Each substance was dissolved in 10% dimethyl sulfoxide which diluted to the highest concentration (1000 µg/mL) for testing. […]. Also, prepared suspensions for standard microorganisms were added to each dilution in a 1:1 ratio. Growth act of microorganism cells was determined visually after incubation at 36 °C. The minimum concentration was no visible growth which was taken as the MIC.
For orientation: Broth dilution looks for growth in wells or tubes with falling amounts of substance.

Another series addresses BSA (Bos taurus, UniProt P02769). The series is described as follows: UV–Visible absorption titration, BSA binding constant. Further details: species or system Bovine. From the text:
UV–Visible absorption spectroscopy technique was also used to study interactions between BSA and 1–4. […] The some results of [BSA]/(εa − εf) = [BSA]/(εb − εf) + 1/[Kb(εb − εf)] in Fig. 9, used and also obtained. The binding constants for the 1–4 were found as 2.4 ± 0.22 × 10^4 M^−1, 4.3 ± 0.29 × 10^4 M^−1, 3.4 ± 0.23 × 10^4 M^−1 and 4.8 ± 0.29 × 10^4 M^−1, respectively. In Fig. 9, the increase in BSA concentrations leads to a change in the absorption of the complexes resulting in hypochromism for 1 and 3 and hyperchromism for 2 and 4.
To obtain the interaction act of the molecules with calf thymus DNA and also to determine the binding constants (Kb) UV–Visible absorption spectroscopy method was utilized. Indeed, 2.5 mg calf thymus DNA in this part was dissolved in Tris–HCl buffer and stabile pending seven days in the refrigerator. The concentration level of calf thymus DNA was calculated spectrophotometrically assay at 260 nm. This method was done according to previous studies.

A further series concerns P. aeruginosa ATCC9027. The series is described as follows: Serial microdilution assay (MIC). In kind it is cell-based, Pseudomonas Aureginosa. The method, then: as §6
For series [3], the system named is B. subtilis ATCC6633. The series is described as follows: Disc diffusion assay. In kind it is cell-based, Bacillus Subtilis. The method, then: (§7) Therefore, the pathogen bacterial flora and the opportunistic agents may be taken into consideration both in the management of cancer patients and in individual susceptibility to cancer. Indeed, dual acting factors with antimicrobial and antiproliferative potentials can result in improved therapeutic efficacy for cancer cell patients or reduced cancer predisposition. […]. In this study, 10 microbial cultures of this part, belonging to ten types of bacterial were used. The culture was grown in Mueller–Hinton Broth (Merck) for all the bacterial strains at 36 °C. Antimicrobial test was carried out by using disc-diffusion assay utilizing 100 µL of suspension with 10^8 CFU/mL of bacteria and 10^6 CFU/mL of yeast spread on Nutrient Agar and Potato Dextrose Agar, respectively. Also, the blank disc (Oxoid = 6 mm in diameter) was impregnated with 20 µL of each substance (105 µg/disc) and placed on the inoculated agar. Negative controls ([…]) were prepared using the same solvent (water) employed to dissolve each substance. […]. The inoculated plate was incubated at 36 °C for clinical bacterial strains. Antimicrobial activities were evaluated by obtaining the zone of inhibitory effect against the test organisms.
Background: Agar diffusion results depend on both activity and mobility in agar.

For another series, the system named is E. aerogenes ATCC2924. The series is described as follows: Serial microdilution assay (MIC). The class given is cell-based, Enterobacter Aerogenes. The method, then:
as §6

The test system of series [4] is B. cereus DSM 4312. The series is described as follows: Disc diffusion assay. The class given is cell-based, Bacillus Cereus. The method, then:
as §7

The subject of series [5] is B. cereus DSM 4312. The series is described as follows: Serial microdilution assay (MIC). The class given is cell-based, Bacillus Cereus. The method, then: as §6
The next series relates to E. aerogenes 2924. Description: Disc diffusion assay. In kind it is cell-based, Enterobacter Aerogenes. The method, then:
as §7

Series [6] has as its system S. aureus ATCC29213. The series is described as follows: Serial microdilution assay (MIC). In kind it is cell-based, Staphylococcus aureus. The method, then: as §6
Series [7] deals with St. pyogenez ATCC176. Description: Serial microdilution assay (MIC). In kind it is cell-based, Steptococcus Pyogerez. The method, then: as §6
Series [8] deals with S. gallinarum. The series is described as follows: Disc diffusion assay. The class given is cell-based, Salmonella Gallinarum. The method, then:
as §7

For series [9], the system named is St. pyogenez ATCC176. The series is described as follows: Disc diffusion assay. The class given is cell-based, Steptococcus Pyogerez. The method, then: as §7
For series [10], the system named is bacterial strains (four gram-positive, five gram-negative). Description: Serial microdilution assay (MIC), range over the bacterial strains. The class given is cell-based. The method, then: as §6
For series [11], the system named is E. coli 111. Description: Disc diffusion assay. In kind it is cell-based, Escherichia coli. The method, then: as §7
Series [12] concerns S. enteridis ATCC13076. Description: Serial microdilution assay (MIC). The class given is cell-based, Salmonella Enteritidis. The method, then: as §6
In series [13] the test system is S. enteridis ATCC13076. Description: Disc diffusion assay. In kind it is cell-based, Salmonella Enteritidis. The method, then:
as §7

For series [14], the system named is S. aureus ATCC29213. Description: Disc diffusion assay. In kind it is cell-based, Staphylococcus aureus. The method, then: as §7
In series [15] the test system is E. coli 111. Description: Serial microdilution assay (MIC). The class given is cell-based, Escherichia coli. The method, then:
as §6

Series [16] concerns B. subtilis ATCC6633. Description: Serial microdilution assay (MIC). The class given is cell-based, Bacillus Subtilis. The method, then:
as §6

Values joined by “and” are separate entries in the source; they are usually repeats but may differ in a detail not shown here. Equal values may be shown once.

`O=c1[nH]cc(F)c(=O)[nH]1` [5FU, 5-fluorouracil, reference compound]: the “cytotoxicity against HT29 cells (LDH)” value with HT29 cells is listed as 9–11%. In addition, the IC50 was 258 ± 21 µM in the series with HT29 (Homo sapiens, HT-29); 276 ± 17 µM in the series with HeLa (Homo sapiens, HeLa); 258 ± 21 µM with Vero (Chlorocebus sabaeus, Vero); 217 ± 19 µM in the series with C6 (Rattus norvegicus, C6). In addition, the cytotoxicity in the series “in vitro” fell in the range of 15 to 25%. In addition, the “binding constant with DNA (reported)” value in the series on CT-DNA is 97000 M⁻¹.
With `N.N.[Cl][Pt][Cl]` [Cisplatin, cisplatin, reference compound], the IC50 in the series on HT29 is 153 ± 14 µM; with HeLa, 230 ± 15 µM; in the series on Vero it was 235 ± 19 µM; in the series with C6, 208 ± 23 µM; in series [1] (HeLa, HT29, C6, Vero) it was 153 to 235 µM.
As to `NCCN(CCO)CCO` [N-bishydeten, N, N-bis (2-hydroxyethyl) -ethylenediamine, reference compound], in [1] (same administrative dose, data not shown), the “antiproliferative effect (in words)” value is “no antiproliferative effects”.
As for [Ni(N-bishydeten)Ag3(CN)5] [Complex 1], in the series with S. gallinarum [2], the “MIC, S. gallinarum” value is 31.25 µg/mL and the “Minimum-inhibitory concentrations (MIC), S. gallinarum” value is 31.25 ± 0.0 µg/mL. Moreover, the “binding constant with BSA” value on BSA was 2.4 ± 0.22 × 10^4 M^−1 and 2.4 x 10^4. In the series with P. aeruginosa ATCC9027, the “Minimum-inhibitory concentrations (MIC), P. aeruginosa ATCC9027” value amounted to 62.50 ± 18.04 µg/mL. Also, the “inhibition zones, B. subtilis ATCC6633” value in the series on B. subtilis ATCC6633 [3] amounted to 14 ± 1.53 mm. In the series on E. aerogenes ATCC2924, the “MIC, E. aerogenes” value came out at 15.62 µg/mL and the “Minimum-inhibitory concentrations (MIC), E. aerogenes ATCC2924” value came out at 15.62 ± 0.0 µg/mL. For the same molecule, in the series with B. cereus DSM 4312 [4], the “inhibition zones, B. cereus DSM 4312” value amounted to 20 ± 1.0 mm. Moreover, in the series on B. cereus DSM 4312 [5], the “Minimum-inhibitory concentrations (MIC), B. cereus DSM 4312” value amounted to 62.50 ± 18.04 µg/mL. In the series with E. aerogenes 2924, the “inhibition zones, E. aerogenes 2924” value was 15 ± 1.0 mm. Further, the “Minimum-inhibitory concentrations (MIC), S. aureus ATCC29213” value with S. aureus ATCC29213 [6] is recorded as 62.50 ± 36.08 µg/mL. Also, in the series on St. pyogenez ATCC176 [7], the “MIC, St. pyogenez” value is recorded as 15.62 µg/mL and the “Minimum-inhibitory concentrations (MIC), St. pyogenez ATCC176” value stood at 15.62 ± 9.02 µg/mL. Besides, the “inhibition zones, S. gallinarum” value in the series with S. gallinarum [8] was 17 ± 0.58 mm. For the same molecule, in the series on St. pyogenez ATCC176 [9], the “inhibition zones, St. pyogenez ATCC176” value was 15 ± 0.0 mm. The “MIC, joint range for 4 and 1 over the strains” value in series [10] lay in the range of 15.62 to 125 µg/mL. Moreover, the “inhibition zones, E. coli 111” value with E. coli 111 [11] is listed as 19 ± 0.58 mm. The “Minimum-inhibitory concentrations (MIC), S. enteridis ATCC13076” value with S. enteridis ATCC13076 [12] came to 62.50 ± 17.97 µg/mL. In addition, the “inhibition zones, S. enteridis ATCC13076” value with S. enteridis ATCC13076 [13] worked out at 18 ± 0.58 mm. Besides, the “inhibition zones, S. aureus ATCC29213” value in the series on S. aureus ATCC29213 [14] is listed as 18 ± 0.58 mm. Moreover, in the series with E. coli 111 [15], the “Minimum-inhibitory concentrations (MIC), E. coli 111” value is 62.50 ± 0.0 µg/mL. Further, the “Minimum-inhibitory concentrations (MIC), B. subtilis ATCC6633” value with B. subtilis ATCC6633 [16] is listed as 62.50 ± 0.0 µg/mL.
